The NIST ThermoML archive (doi:10.1021/je9008156)
± gives the expanded uncertainty stated by the source.

Settings: Crystal; visual observation

Normal melting temperature: 193.00 ± 0.5 °C
Structure (SMILES): Nc1c(I)c(C(=O)NCC(O)CO)c(I)c(C(=O)NCC(O)CO)c1I (stereo unspecified)
